In patent publication US7964341B2, “Human endogenous retrovirus K102 with foamy-virus-like properties and uses thereof” (priority 2005, dated 2011):

Test system: HERV-K102 replication (cDNA production) in cultured cord blood cells
Assay: Screening for agents able to modulate HERV-K102 replication (cDNA production) in cultured cord blood cells, real time PCR ddCt ratio
Type: cell-based, human
Settings: for effect on HERV-K102 replication in cultured CB cells: approximately 10^-6 M or equivalent, harvested day 5
Excerpt: First we wished to show in normal lymphocytes that there are increased levels of HERV-K102 pol DNA over and above genomic when HERV-K102 associated particles are made. For this we extracted DNA and then performed the HERV-K102 ddCt ratio. Please see FIG. 15 for the sequences and location of the forward and reverse primers and the probe used for the real time PCR. […] We developed a ddCt ratio real time PCR method (relative quantitation) which takes the difference between HERV-K102 pol and 18 s RNA Ct's (delta Ct), and subtracts this from the same performed on commercial normal adult genomic DNA (male) (the delta delta Ct). Then we use the algorithm 2−(ddCt) to calculate the relative ratio of HERV-K102 to genomic DNA. This index when elevated above normal ratios (see Table 3 for these ratios) for fluids with contaminating cells (eg plasma and saliva) indicates an excess of non-genomic DNA templates and could be taken as a surrogate marker for putative particles in the sample. […] Since real time PCR is so sensitive, and we were only interested in the DNA copy number of HERV-K102 pol, we subsequently used the Qiagen DNA Mini kit for DNA extractions of plasma.
Commercially available master mix buffer can be purchased with or without Amperase-UNG a highly purified enzyme Uracil-N-Glycosylase, which when included in the buffer for the real time PCR will digest any DNA or cDNA templates containing uracil. […] Thus, if any isolated DNA becomes digested it must be non-genomic.
Finally we investigated certain natural products, drugs and peptide cytokines for their ability to regulate HERV-K replication such as measured in CB cells (Table 7). These agents were tested at approximately 10^−6 M or equivalent. We harvested the study on day 5. […] Tuftsin is naturally cleaved from the FC region of IgG and is considered an immunoenhancing substance and the 1/5000 concentration is usually employed to show its enhancing effects on the activation of monocytes.
Cord blood (CB) isolation. Under aseptic conditions, cord blood was collected into heparinized tubes and peripheral blood mononuclear cells (PBMC) were prepared as follows: the blood was centrifuged at 2700 rpm for 10 minutes, and the buffy coat placed in 5 mls of media (defined as IMDM plus 0.2% penicillin/gentamycin). The mixture was layered onto Ficoll-Paque (Pharmacia #17-0840-03) in a ratio of 1/3 Ficoll to blood suspension. The tubes were centrifuged 30 minutes at 1600 rpm.

[1] = cord blood harvested Day 5, agents at approximately 10^-6 M or equivalent, Day 5 control 2.19
[2] = cord blood harvested Day 5, agents at approximately 10^-6 M or equivalent, relative to Day 5 control ddCt ratio
[3] = cord blood Day 5, uracil-N-glycosylase in master mix, agents at approximately 10^-6 M or equivalent
[4] = Tuftsin 1/5000, cord blood Day 5

C[C@]12CC[C@H](O)CC1=CC[C@@H]1[C@@H]2CC[C@]2(C)C(=O)CC[C@@H]12 [DHEA, dihydroepiandrosterone]
effect on HERV-K102 replication in cultured CB cells: enhanced HERV-K102 replication
HERV-K102 ddCt Ratio [1]: 2.60
Level of Control Activity (%) [2]: 119%

C[C@]12CC[C@@H]3c4ccc(O)cc4CC[C@H]3[C@@H]1CC[C@@H]2O [E2, estradiol]
Level of Control Activity (%) [2]: 133%

CC1=C(c2ccc(O)cc2)[C@H](c2ccc(OCCN3CCCCC3)cc2)Oc2cc(O)ccc21 [EM652]
effect on HERV-K102 replication in cultured CB cells: enhanced HERV-K102 replication
ddCt performed with UNG [3]: 2.06 (100%)
HERV-K102 ddCt Ratio [1]: 3.07
Level of Control Activity (%) [2]: 140%

CC/C(=C(\c1ccccc1)c1ccc(OCCN(C)C)cc1)c1ccccc1 [Tamoxifen, tamoxifen]
effect on HERV-K102 replication in cultured CB cells: enhanced HERV-K102 replication
ddCt performed with UNG [3]: 2.64 (63%)
HERV-K102 ddCt Ratio [1]: 3.43
Level of Control Activity (%) [2]: 157%

Tuftsin
Level of Control Activity (%) (Tuftsin 1/500, cord blood Day 5): 65.7%
HERV-K102 ddCt Ratio (Tuftsin 1/500, cord blood Day 5, control 2.19): 1.44
Level of Control Activity (%) [4]: 189%
ddCt performed with UNG [4]: 2.10
HERV-K102 ddCt Ratio (Tuftsin 1/5000, cord blood Day 5, control 2.19): 4.14
effect on HERV-K102 replication (Tuftsin at high levels (1/500)): inhibited HERV-K102 replication
effect on HERV-K102 replication (Tuftsin at low levels (1/5000)): enhanced HERV-K102 replication
effect on HERV-BZU activation (depending on concentration, refers to Table 7): can enhance or inhibit HERV-BZU activation
